Results: US20240390468A1, “SURVIVIN AND MAGE-A9 DUAL-TARGETED IMMUNOTHERAPY” (IMMUNOVACCINE TECHNOLOGIES INC., priority 2022, published 2024)

Key:
spleen cells = experiment: Spleen cell studies (omission of peptide 223); format: cell-based
[1] = target: MHC class 1 allele A*02:01 (Homo sapiens, UniProt P04439, D140Y/D185E/D98H/E176V/E277Q/G131W/G231S/I119V/I121R/I166T/I218V/L300P/L318F/N151K/N90K/P208A/P217A/Q86G/Q94H/R138H/R169H/T345S); experiment: REVEAL binding of HLA-A2 binding peptides; settings: Higher REVEAL score
[2] = test system: peptide-loaded RMA-S HHD cells; experiment: Chromium 51 release assay (CTL assay); format: cell-based, mice; settings: effector:target 75:1, 50:1, 25:1; mice immunized with recombinant MAGE-A9 and poly(I:C)

binding to MHC class 1 allele A*02:01 (in words) [1]: high binding
Sequence: ALSVMGVYV [MAGE-A9 223, MAGE-A9 peptide antigen]
impact of omission on immunogenic potential of a final formulation (spleen cells): does not significantly impact
CTL response (51Cr-release) [2]: elicited a response
